# Like-named read-outs stand apart in the source and are kept apart here.
# What was measured:
# A. baumannii (GDM1.609) = experiment: MIC by micro-broth dilution (CLSI); assay type: cell-based, Acinetobacter baumannii; conditions: Fig. 1D; for MIC: micro-broth dilution, 37°C, 24 h, OD 600 nm, three replicates; for inhibitory activity on A. baumannii (in words): MIC test
# Procedure: (§1) The MIC of F3 against different bacteria were measured by using a micro-broth dilution method developed by the Clinical and Laboratory Standards Institute ([33]). Briefly, the bacterial suspension with absorbance ranging from 0.08 to 0.10 was prepared and 100 µL of the bacterial suspension to a 96 U-shaped well culture plate. The dalbavancin HCl and sodium fusidate were prepared into 328 µM, polymyxin B was prepared at 840.7 µM with phosphate-buffered saline (PBS). Concentrations of F1 and F3 and of F-K were diluted to […] and 479.8 μM, and they were added into 96-well plates with concentration gradients of 310.5, 155.2, 77.6, 38.8, 19.4, 9.7, and 4.9 µM, respectively, with three replicates for each concentration, the equivalent volume of PBS was added as a growth control. The bacteria were cultured at 37°C for 24 h. The optical density (OD) value at 600 nm was measured with a MULTISKAN GO microplate spectrophotometer.
# E. coli (GDM1.176) = experiment: MIC by micro-broth dilution (CLSI); assay type: cell-based, Escherichia coli; conditions: for inhibition of E. coli growth (in words): MIC test, Fig. 1E
# Procedure: as §1
# P. aeruginosa (GDM1.443) = experiment: MIC by micro-broth dilution (CLSI); assay type: cell-based,  Pseudomonas aeruginosa; conditions: Fig. 1F; for inhibition of P. aeruginosa growth (in words): MIC test
# Procedure: as §1
# [1] = pH 5.5; cited from earlier work
# bacteria = conditions: after repeatedly in vitro culture; cited from earlier work
# Description: Moreover, caerin 1.1 has an additive antibacterial effect when used together with caerin 1.9. Caerin 1.1 and caerin 1.9 prepared in the form of a temperature-sensitive gel inhibit MRSA growth in a skin bacterial infecti ...
Compound,"MIC (A. baumannii (GDM1.609); Acinetobacter baumannii, read-out: MIC)",inhibitory activity on A. baumannii (in words) (A. baumannii (GDM1.609)),"MIC (E. coli (GDM1.176); Escherichia coli, 24 h)",inhibition of E. coli growth (in words) (E. coli (GDM1.176)),inhibition of P. aeruginosa growth (in words) (P. aeruginosa (GDM1.443)),"MIC (P. aeruginosa (GDM1.443); Pseudomonas aeruginosa, micro-broth dilution, 37°C, 24 h, OD 600 nm, three replicates)",MIC (A. baumannii (GDM1.609)),stability at pH and temperature [1],induction of bacterial resistance (bacteria)
"CC(=O)O[C@H]1C[C@@]2(C)[C@@H](C[C@@H](O)[C@H]3[C@@]4(C)CC[C@@H](O)[C@@H](C)[C@@H]4CC[C@@]32C)/C1=C(\CCC=C(C)C)C(=O)O [Sodium Fusidate, Sodium fusidate]",19.7 µM,no inhibitory activity,78.7 µM,incapable of stopping these bacterial growth,incapable of stopping these bacterial growth,78.7 µM,,,
GLLSVLGSVAKHVLPHVVPVIAEHL-NH2 [F1],,comparable inhibition,,suppression of the growth of E. coli and P. aeruginosa at high concentrations,suppression of the growth of E. coli and P. aeruginosa at high concentrations,,around 5 μM,stable at low pH (5.5–7.4) and room temperature,
GLFGVLGSIAKHVLPHVVPVIAEKL-NH2 [F3],,comparable inhibition,,suppression of the growth of E. coli and P. aeruginosa at high concentrations,suppression of the growth of E. coli and P. aeruginosa at high concentrations,,around 5 μM,stable at low pH (5.5–7.4) and room temperature,did not induce bacterial resistance
"CN[C@H]1C(=O)N[C@@H]2Cc3ccc(cc3)Oc3cc4cc(c3O[C@@H]3O[C@H](C(=O)O)[C@@H](O)[C@H](O)[C@H]3NC(=O)CCCCCCCCC(C)C)Oc3ccc(cc3Cl)[C@@H](O)[C@@H]3NC(=O)[C@H](NC(=O)[C@@H]4NC(=O)[C@@H](NC2=O)c2cc(cc(O)c2Cl)Oc2cc1ccc2O)c1ccc(O)c(c1)-c1c(O[C@H]2O[C@H](CO)[C@@H](O)[C@H](O)[C@@H]2O)cc(O)cc1[C@@H](C(=O)NCCCN(C)C)NC3=O [Dalbavancin, dalbavancin]",,no inhibitory activity,,incapable of stopping these bacterial growth,incapable of stopping these bacterial growth,,,,
"PLLLLLPSLLTATL-NH2 [F-K, positive control antimicrobial peptide]",,comparable inhibition,,the best at inhibiting these two strains of bacteria,the best at inhibiting these two strains of bacteria,,,,

# Source: PMC10714828, “Proteomic analysis of anti-MRSA activity of caerin 1.1/1.9 in a murine skin infection model and their in vitro anti-biofilm effects against Acinetobacter baumannii” (Microbiology Spectrum, 2023)
